Laboratory results taken from BigSolDB 2.1.

Cc1cc(C)nc(Nc2ccccc2)n1
solubility (mole fraction)
Conditions	283.15 K	288.15 K	293.15 K	298.15 K	303.15 K	308.15 K	313.15 K	318.15 K	323.15 K
in cyclohexane	0.00583	0.00751	0.0095	0.0123	0.0157	0.0213	0.0304	0.0435	0.0614
in ethanol	0.0146	0.0175	0.0211	0.0267	0.0332	0.0438	0.0577	0.0785	0.112
in isobutanol	0.0148	0.0178	0.0236	0.028	0.0345	0.0454	0.0652	0.0937	0.13
in isopropanol	0.0103	0.0126	0.016	0.0198	0.025	0.0324	0.0429	0.0611	0.0861
in methanol	0.0138	0.0162	0.0193	0.0245	0.0311	0.0418	0.0568	0.0765	0.107
in n-butanol	0.0193	0.0251	0.0317	0.0389	0.0498	0.0638	0.0813	0.112	0.145
in n-propanol	0.0179	0.0215	0.0264	0.0316	0.037	0.0481	0.0682	0.0971	0.131
